In publication PMC9151520 (Archives of Toxicology, 2022):
Where two headings read alike, the source gives them in different places.

Experiments:
[1] = system: p53 signaling (p53RE-bla HCT-116 cells); assay: cells; format: cell-based; details: for EC50 / Emax: Homo sapiens
[2] = system: p53 signaling (p53RE-bla HCT-116 cells)
[3] = system: p53 signaling (p53RE-bla HCT-116 cells); remark: listed apart in the source
[4] = HCT-116, read-out: p53 activation EC50, primary screening
[5] = HCT-116, read-out: p53 activation efficacy, primary screening
[6] = HCT-116, read-out: p53 activation EC50, cherry pick confirmation
[7] = HCT-116, read-out: p53 activation efficacy, cherry pick confirmation

CN(C)c1ccc(C(=O)c2ccc(N(C)C)cc2)cc1 [Michler's ketone]
p53 activation EC50, cherry pick confirmation [1]: inactive | p53 activation efficacy, cherry pick confirmation [1]: inactive | EC50 [1, 4]: 2.8 µM | Emax [1, 5]: 37.9% | p53 activation EC50, cherry pick confirmation [2]: inactive | p53 activation EC50, primary screening [2]: inactive | p53 activation efficacy, cherry pick confirmation [2]: inactive | p53 activation efficacy, primary screening [2]: inactive | Viability EC50, cherry pick confirmation (p53RE-bla HCT-116 cells): inactive | Viability EC50, primary screening (p53RE-bla HCT-116 cells): inactive | Viability efficacy, cherry pick confirmation (p53RE-bla HCT-116 cells): inactive | Viability efficacy, primary screening (p53RE-bla HCT-116 cells): inactive | p53 activation EC50, cherry pick confirmation [3]: inactive | p53 activation EC50, primary screening [3]: inactive | p53 activation efficacy, cherry pick confirmation [3]: inactive | p53 activation efficacy, primary screening [3]: inactive

Cc1ccccc1C(=O)Nc1ccc(C(=O)N2CCCC(N(C)C)c3ccccc32)cc1 (stereo not shown) [Mozavaptan]
EC50 [1, 6]: 1.36 µM | EC50 [1, 4]: 7.97 µM | Emax [1, 7]: 38.6% | Emax [1, 5]: 66.2% | p53 activation EC50, cherry pick confirmation [2]: inactive | p53 activation EC50, primary screening [2]: inactive | p53 activation efficacy, cherry pick confirmation [2]: inactive | p53 activation efficacy, primary screening [2]: inactive | Viability EC50, cherry pick confirmation (p53RE-bla HCT-116 cells): inactive | Viability EC50, primary screening (p53RE-bla HCT-116 cells): inactive | Viability efficacy, cherry pick confirmation (p53RE-bla HCT-116 cells): inactive | Viability efficacy, primary screening (p53RE-bla HCT-116 cells): inactive | p53 activation EC50, cherry pick confirmation [3]: inactive | p53 activation EC50, primary screening [3]: inactive | p53 activation efficacy, cherry pick confirmation [3]: inactive | p53 activation efficacy, primary screening [3]: inactive

COc1c(C)c2c(c(O)c1C/C=C(\C)CCC(=O)OCCN1CCOCC1)C(=O)OC2 [Mycophenolate mofetil]
EC50 [1, 6]: 0.209 µM | EC50 [1, 4]: 0.163 µM | Emax [1, 7]: 56.2% | Emax [1, 5]: 36.3% | p53 activation EC50, cherry pick confirmation [2]: inactive | p53 activation EC50, primary screening [2]: inactive | p53 activation efficacy, cherry pick confirmation [2]: inactive | p53 activation efficacy, primary screening [2]: inactive | Viability EC50, cherry pick confirmation (p53RE-bla HCT-116 cells): inactive | Viability EC50, primary screening (p53RE-bla HCT-116 cells): inactive | Viability efficacy, cherry pick confirmation (p53RE-bla HCT-116 cells): inactive | Viability efficacy, primary screening (p53RE-bla HCT-116 cells): inactive | p53 activation EC50, cherry pick confirmation [3]: inactive | p53 activation EC50, primary screening [3]: inactive | p53 activation efficacy, cherry pick confirmation [3]: inactive | p53 activation efficacy, primary screening [3]: inactive

COc1c(C)c2c(c(O)c1C/C=C(\C)CCC(=O)O)C(=O)OC2 [Mycophenolic acid]
EC50 [1, 6]: 0.172 µM | EC50 [1, 4]: 0.174 µM | Emax [1, 7]: 58.4% | Emax [1, 5]: 42.7% | p53 activation EC50, cherry pick confirmation [2]: inactive | p53 activation EC50, primary screening [2]: inactive | p53 activation efficacy, cherry pick confirmation [2]: inactive | p53 activation efficacy, primary screening [2]: inactive | Viability EC50, cherry pick confirmation (p53RE-bla HCT-116 cells): inactive | Viability EC50, primary screening (p53RE-bla HCT-116 cells): inactive | Viability efficacy, cherry pick confirmation (p53RE-bla HCT-116 cells): inactive | Viability efficacy, primary screening (p53RE-bla HCT-116 cells): inactive | p53 activation EC50, cherry pick confirmation [3]: inactive | p53 activation EC50, primary screening [3]: inactive | p53 activation efficacy, cherry pick confirmation [3]: inactive | p53 activation efficacy, primary screening [3]: inactive

O=C(N/N=C/c1ccc([N+](=O)[O-])o1)c1ccc(O)cc1 [Nifuroxazide]
EC50 [1, 6]: 10.2 µM | EC50 [1, 4]: 19.6 µM | Emax [1, 7]: 47.4% | Emax [1, 5]: 39.6% | p53 activation EC50, cherry pick confirmation [2]: inactive | p53 activation EC50, primary screening [2]: inactive | p53 activation efficacy, cherry pick confirmation [2]: inactive | p53 activation efficacy, primary screening [2]: inactive | Viability EC50, cherry pick confirmation (p53RE-bla HCT-116 cells): inactive | Viability EC50, primary screening (p53RE-bla HCT-116 cells): inactive | Viability efficacy, cherry pick confirmation (p53RE-bla HCT-116 cells): inactive | Viability efficacy, primary screening (p53RE-bla HCT-116 cells): inactive | p53 activation EC50, cherry pick confirmation [3]: inactive | p53 activation EC50, primary screening [3]: inactive | p53 activation efficacy, cherry pick confirmation [3]: inactive | p53 activation efficacy, primary screening [3]: inactive

O=C1c2ccccc2C(=O)C1(O)O [Ninhydrin]
EC50 [1, 6]: 22.3 µM | EC50 [1, 4]: 41.2 µM | Emax [1, 7]: 44.3% | Emax [1, 5]: 55.1% | p53 activation EC50, cherry pick confirmation [2]: inactive | p53 activation EC50, primary screening [2]: inactive | p53 activation efficacy, cherry pick confirmation [2]: inactive | p53 activation efficacy, primary screening [2]: inactive | Viability EC50, cherry pick confirmation (p53RE-bla HCT-116 cells): inactive | Viability EC50, primary screening (p53RE-bla HCT-116 cells): inactive | Viability efficacy, cherry pick confirmation (p53RE-bla HCT-116 cells): inactive | Viability efficacy, primary screening (p53RE-bla HCT-116 cells): inactive | p53 activation EC50, cherry pick confirmation [3]: inactive | p53 activation EC50, primary screening [3]: inactive | p53 activation efficacy, cherry pick confirmation [3]: inactive | p53 activation efficacy, primary screening [3]: inactive

CC1=C(C(=O)Nc2ccccc2)S(=O)(=O)CCO1 [Oxycarboxin]
EC50 [1, 6]: 36.4 µM | EC50 [1, 4]: 21.2 µM | Emax [1, 7]: 82.6% | Emax [1, 5]: 76% | p53 activation EC50, cherry pick confirmation [2]: inactive | p53 activation EC50, primary screening [2]: inactive | p53 activation efficacy, cherry pick confirmation [2]: inactive | p53 activation efficacy, primary screening [2]: inactive | Viability EC50, cherry pick confirmation (p53RE-bla HCT-116 cells): inactive | Viability EC50, primary screening (p53RE-bla HCT-116 cells): inactive | Viability efficacy, cherry pick confirmation (p53RE-bla HCT-116 cells): inactive | Viability efficacy, primary screening (p53RE-bla HCT-116 cells): inactive | p53 activation EC50, cherry pick confirmation [3]: inactive | p53 activation EC50, primary screening [3]: inactive | p53 activation efficacy, cherry pick confirmation [3]: inactive | p53 activation efficacy, primary screening [3]: inactive
